Converted amounts (≈) assume the structure as drawn. The source made the active and inactive calls. No cut-off for these calls is given here.

A word on the Ki: it is a measure of affinity in units of concentration, obtained from inhibition or displacement. The term IC50 denotes the concentration that inhibits the measured activity by half. As a reminder, the solubility is the concentration that dissolves in the medium under given conditions.

Data set [1] addresses T1, Tyrosine-protein kinase ABL1 (Homo sapiens, UniProt P00519). Kind of data set: Inhibition human recombinant Abl using Abtide peptide substrate at 100 uM in presence of [gamma-32P]-ATP.
Data set [2] concerns the target T2, Receptor-type tyrosine-protein kinase FLT3 (Homo sapiens, UniProt P36888).
T2 sequence (P36888 whole entry): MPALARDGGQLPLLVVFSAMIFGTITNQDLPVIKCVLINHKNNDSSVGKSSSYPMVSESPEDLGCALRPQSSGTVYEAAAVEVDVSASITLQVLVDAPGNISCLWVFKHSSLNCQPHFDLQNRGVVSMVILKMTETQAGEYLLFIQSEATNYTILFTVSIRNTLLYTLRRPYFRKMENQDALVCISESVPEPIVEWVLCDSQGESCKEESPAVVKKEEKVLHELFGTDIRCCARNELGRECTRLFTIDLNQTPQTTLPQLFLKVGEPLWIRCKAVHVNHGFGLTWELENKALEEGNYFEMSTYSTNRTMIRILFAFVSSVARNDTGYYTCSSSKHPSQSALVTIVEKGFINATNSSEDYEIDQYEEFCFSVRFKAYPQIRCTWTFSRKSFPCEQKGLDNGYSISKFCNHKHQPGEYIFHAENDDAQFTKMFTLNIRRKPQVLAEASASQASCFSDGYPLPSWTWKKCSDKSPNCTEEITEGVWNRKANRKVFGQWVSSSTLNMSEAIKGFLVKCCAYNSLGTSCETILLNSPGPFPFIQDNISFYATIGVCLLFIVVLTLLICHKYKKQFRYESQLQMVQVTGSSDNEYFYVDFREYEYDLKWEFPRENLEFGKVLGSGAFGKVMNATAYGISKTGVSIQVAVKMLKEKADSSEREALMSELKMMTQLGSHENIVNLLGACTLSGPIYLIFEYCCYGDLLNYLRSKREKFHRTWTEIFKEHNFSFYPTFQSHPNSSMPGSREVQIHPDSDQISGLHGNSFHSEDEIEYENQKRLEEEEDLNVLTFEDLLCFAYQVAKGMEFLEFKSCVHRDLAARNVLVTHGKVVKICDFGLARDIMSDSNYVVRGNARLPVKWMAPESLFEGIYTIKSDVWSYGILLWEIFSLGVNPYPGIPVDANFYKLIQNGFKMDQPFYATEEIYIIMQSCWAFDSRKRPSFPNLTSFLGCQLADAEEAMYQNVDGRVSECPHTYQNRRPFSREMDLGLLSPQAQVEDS
Description: Inhibition human recombinant FLT3 using Poly(Ala,Glu,Lys,Tyr)peptide substrate in presence of [gamma-32P]-ATP

The next data set relates to HS27. Kind of data set: Antiproliferative activity against human HS27 cells assessed as retardation in proliferation rate at 10 uM after 72 hrs by XTT assay. The class given is cell-based. Conditions: hs27, 72 h.
Data set [3] has as its system SH-SY5Y. Kind of data set: cells. Conditions: Homo sapiens, 72 h.
The target in data set [4] is Serine/threonine-protein kinase pim-1 (Homo sapiens, UniProt P11309). Kind of data set: Inhibition human recombinant Pim1 using KKRNRLTLTV peptide substrate in presence of [gamma-32P]-ATP.
The target of another data set is Focal adhesion kinase 1 (Homo sapiens, UniProt Q05397).
In data set [5] the test system is SH-SY5Y. Kind of data set: Antiproliferative activity against human SH-SY5Y cells assessed as cell viability at 0.01 to 10 uM by XTT assay. Conditions: TDE = time-dependent effect. Format: functional, cell-based. A general note: Formazan colour is commonly taken as a measure of viable cells.
Data set [6] has as its target Proto-oncogene tyrosine-protein kinase Src (Homo sapiens, UniProt P12931). Kind of data set: Inhibition human recombinant cSRC using KVEKIGEGTYGVVYK peptide substrate in presence of [gamma-32P]-ATP.
In data set [7] the target is Tyrosine-protein kinase HCK (Homo sapiens, UniProt P08631). Kind of data set: Inhibition human recombinant HcK using KVEKIGEGTYGVVYK peptide substrate in presence of [gamma-32P]-ATP.
Data set [8] in a line: Permeability of the compound at pH 7.4 after 5 hrs using porcine polar brain lipid by PAMPA-BBB assay. Format: ADME. Conditions: pig; for Papp at 5 h: PAMPA, pH 7.4, read-out: permeability. (PAMPA measures passive passage across an artificial lipid membrane.)
Data set [9] in a line: Metabolic stability in human liver microsomes at 50 uM at pH 7.4 using NADPH by LC-UV-MS method. The class given is ADME, Microsome. Conditions: read-out: Stability.
Data set [10] has as its system SH-SY5Y. Kind of data set: Antiproliferative activity against human SH-SY5Y cells assessed as growth reduction at 10 uM after 72 hrs. Format: functional. Also on record: scale not given: the % may be the effect or the level left.
Data set [11] can be described thus: Aqueous solubility of the compound after 24 to 36 hrs by LC-MS-MS assay. Format: physicochemical. Conditions: buffer.
In data set [12] the test system is SH-SY5Y. Kind of data set: Antiproliferative activity against human SH-SY5Y cells assessed as cell viability after 72 hrs by XTT assay.
Data set [13] concerns the target T1, Tyrosine-protein kinase ABL1.
Description: Inhibition human recombinant Abl using Abtide peptide substrate in presence of [gamma-32P]-ATP

Description for Focal adhesion kinase 1: Inhibition human recombinant FAK using Poly(Glu,Tyr) substrate in presence of [gamma-32P]-ATP

On to `CC(Cn1ncc2c(Nc3cccc(Cl)c3)ncnc21)c1ccccc1` (centres undefined), for which the inhibition result in data set [1] was “inactive”.

With `CSc1nc(Nc2ccccc2)c2cnn(CC(C)c3ccccc3)c2n1` (centres undefined), the inhibitory constant (Ki) entry in data set [2] was “Not Active”; in data set [4] it was 11500 nM; at Focal adhesion kinase 1, “Not Active”; in data set [6], 25 nM; in data set [7], 3870 nM. The values for the Activity entry in the data set on HS27 and with SH-SY5Y [5] were “Toxic” and “tde”, respectively. In the data set with SH-SY5Y [3], this compound displayed an IC50 of 730 nM. The inhibition result in data set [1] is “inactive”.

Regarding `CC(Cn1ncc2c(NCc3ccc(F)cc3)ncnc21)c1ccccc1` (centres undefined), the inhibition result in [1] was “inactive”.

As to `CSc1nc(Nc2cccc(Cl)c2)c2cnn(CCc3ccccc3)c2n1`, the Papp at 5 h in data set [8] stood at 3.43 ×10⁻⁶ cm/s. In addition, the Activity entry was “Toxic” with HS27 and “tde” in the data set with SH-SY5Y [5]. Moreover, the inhibition constant (Ki) in data set [4] worked out at 6500 nM; in [6], 90 nM; in [7], 1720 nM. For the same compound, in data set [1], the inhibition result was “inactive”. Besides, the remaining at 50 µM in data set [9] stood at 99%.

With `CC(Cn1ncc2c(NCc3ccccc3)ncnc21)c1ccccc1` (centres undefined), the inhibition entry in data set [1] is “inactive”.

Take `CC(Cn1ncc2c(NCc3cccc(F)c3)ncnc21)c1ccccc1` (centres undefined): the inhibition result in data set [1] is “inactive”.

Turning to `CSc1nc(Nc2cccc(Cl)c2)c2cnn(CC(Cl)c3ccccc3)c2n1` (centres undefined), the Papp at 5 h in data set [8] came to 5.66 ×10⁻⁶ cm/s. For the same compound, the Activity in the data set with SH-SY5Y [10] was found to be 75%. The compound further registered a solubility in data set [11] of 0.046 µg/mL (≈ 0.107 µM). For the same compound, in [6], the Ki was determined as 700 nM. Also, the remaining at 50 µM in data set [9] came to 91%.

Regarding `CC(C)(C)n1nc(-c2ccc(Cl)cc2)c2c(N)ncnc21`, the half-maximal inhibitory concentration (IC50) in the data set on SH-SY5Y [3] came to 6100 nM.

Regarding `CC(Cn1ncc2c(NCc3ccccc3F)ncnc21)c1ccccc1` (centres undefined), the inhibition result in data set [1] is “inactive”.

With `Clc1cccc(Nc2ncnc3c2cnn3CCc2ccccc2)c1`, the inhibition entry in data set [1] was “inactive”.

`CSc1nc(Nc2cccc(Br)c2)c2cnn(CC(C)c3ccccc3)c2n1` (centres undefined): the permeability in data set [8] (pampa, pH 7.4, 5 h) is 1.48 ×10⁻⁶ cm/s. Besides, the Activity entry with HS27 was “Toxic”; in the data set with SH-SY5Y [5], “tde”; in the data set on SH-SY5Y [12], “Dose-dependent effect”. For the same compound, in the data set on SH-SY5Y [3], half-maximal inhibition (IC50) required 800 nM. The solubility in [11] was less than 0.01 µg/mL. In data set [9], the remaining at 50 µM amounted to 95%.

For `ClC(Cn1ncc2c(NCc3ccccc3)ncnc21)c1ccccc1` (centres undefined), the values for the Ki in [13] and in [6] were 370 nM and 3000 nM, respectively.

As to `CSc1nc(NCc2ccccc2)c2cnn(CC(C)c3ccccc3)c2n1` (centres undefined), in [1], the inhibition entry was “inactive”.

`CSc1nc(Nc2cccc(Cl)c2)c2cnn(CC(C)c3ccccc3)c2n1` (centres undefined): the Ki result was “Not Active” in data set [2]; 6600 nM in data set [4]; “Not Active” on Focal adhesion kinase 1; 25 nM in data set [6]; 5000 nM in data set [7]. Further, the Activity result in the data set with HS27 is “Toxic”; with SH-SY5Y [5] it was “tde”; with SH-SY5Y [12], “Dose-dependent effect”. The compound also showed an IC50 in the data set on SH-SY5Y [3] of 330 nM. Further, the inhibition result in [1] is “inactive”.

(Values after ChEMBL document CHEMBL1833847, “Identification of potent c-Src inhibitors strongly affecting the proliferation of human neuroblastoma cells” (Bioorg Med Chem Lett, 2011).)
